# Data: patent publication US7169567B1, “Screening assay utilizing the PTH receptor” (The General Hospital Corporation, priority 1998, dated 2007)
# Entries after “also recorded” stand apart in the source; their conditions may differ. Where no end group is shown, it is not given here.
# Legend:
# [1] = test system: truncated rat PTH-1 receptor (rΔNt); experiment: cAMP response in COS-7 cells transiently transfected with truncated rat PTH-1 receptor (rΔNt); format: cell-based; settings: COS-7 cells, cAMP
# Description: (§1) FIG. 4. PTH Responses of Intact and Truncated PTH-1 Receptors in COS-7 Cells. Shown at the top are schematics of the intact (A) and truncated (B) rat PTH-1 receptors used for transient transfection of COS-7 cells, and subsequent cAMP response assays. The conserved extracellular cysteine residues are depicted as open circles and numbered according to sequence position, and the nine amino acids of the epitope tag (HA) in rWT-HA are shaded. The tics at residue 26 and 181 indicate the endpoints of the deletion in rΔNt. Based on the predicted signal peptide cleavage site at Ala-22, residues 23–25 in rΔNt are joined to residue 182. The cAMP responses of COS-7 cells expressing the intact receptor (C) and rΔNt (D) to rPTH(1–34) (J) or rPTH(1–14) (C) are also shown. The graphs show combined data (mean±s.e.m.) from five separate experiments, each performed in duplicate. […]
# (§2) FIG. 6. Specificity of the Truncated Ligand and PTH Receptor. COS-7 cells transiently transfected with either rWT-HA (A), rΔNt (B), or the intact rat secretin receptor (C), were treated with the indicated peptides for 60 min at 22° C., and the resulting intracellular cAMP levels were quantified by RIA. Concentration of peptides present during the incubations were: rPTH(1–34), 0.1 mM; rPTH(1–14) 100 mM; secretin(1–27). […] Shown are data (mean±s.e.m.) from one experiment performed in duplicate, and this was repeated twice more with equivalent results.
# (§3) For studies with the intact and truncated rat PTH-1 receptors, transient transfections of COS-7 cells were performed using DEAE-dextran as described previously (Bergwitz, C., et al., J. Biol. Chem. 272:28861–28868)). The construction and initial characterization of the pCDNA-1 based plasmids encodin either the intact or truncated rat PTH-1 receptor has been described previously (Lee, C., et al., Endocrinology 135(4):1488–1495)). […] The truncated rat PTH-1 receptor (rΔNt) is deleted for exons E1 through exon G (residues 26 to 181). Assuming that signal peptidase cleavage occurs between Ala-22 and Tyr-23 (Nielsen, H., et al., Protein Engineering 10:1–6 (1997)), rΔNt is predicted to have for its N-terminus residues Dautzenberg, F., et al., Proc. Natl. Acad. Sci. 95:4941–4946 (1998); Holtmann, M., et al., J. Biol. Chem. 270:14394–14398 (1995); DeAlmeida, V. and Mayo, K., Mol. Endo. 12:750–765 (1998)) joined to Glu-182 (FIG. 3B). COS-7 cells were transfected in 24-well plates when the cells were 85 to 95% of confluency, using 200 ng of plasmid DNA that was purified by cesium chloride/ethidium bromide gradient centrifugation for each well. Assays were conducted 72 to 96 hours after transfection. Under these conditions about ˜20% of the COS-7 cells become transfected and express about 5×10^6 surface PTH receptors per cell (Bergwitz, C., et al., J. Biol. Chem. 272:28861–28868)).
# (§4) Intracellular cyclic AMP: Transfected COS-7 or HKRK-B7 cells were rinsed with 500 ml of binding buffer, (50 mM Tris-HCl, pH 7.7, 100 mM NaCl, 5 mM KCl, 2 mM CaC12, 5% heat-inactivated horse serum, 0.5% heat-inactivated fetal bovine serum) and 200 ml of IBMX buffer (DMEM containing 2 mM IBMX, 1 mg/ml bovine serum albumin, 35 mM Hepes-NaOH, pH 7.4) and […] of binding buffer or binding buffer containing various amounts of peptide were added. The plates were incubated for 60 minutes at room temperature. The buffer was then withdrawn and the cells were frozen on dry ice, treated with 0.5 ml of 50 mM HCl, and refrozen. After the thawing, the lysate was diluted 30-fold in dH20 and an aliquot was analyzed for cAMP content by determined radioimmunoassay using unlabeled cAMP as a standard.
# (§5) Experiments utilized COS-7 cells transfected with either the intact rat PTH-1 receptor (rWT-HA, FIG. 4A) or a truncated rat PTH-1 receptor with most of the amino-terminal extracellular domain deleted (rΔNt, FIG. 4B).
# [2] = biological target: T1, truncated rat PTH-1 receptor (rΔNt) (Rattus norvegicus, UniProt P25961, E586G); experiment: as above; format: cell-based; settings: for cAMP response of cells expressing rΔNt (in words): secretin(1–27) 1 mM
# T1 construct: contains an open reading frame encoding a protein of about 435 amino acid residues; expressed in transfected cells; host or cells: COS-7, transient (DEAE-dextran), pCDNA-1 based plasmid
# T1 sequence (P25961 with tags, fused parts or gaps E586G): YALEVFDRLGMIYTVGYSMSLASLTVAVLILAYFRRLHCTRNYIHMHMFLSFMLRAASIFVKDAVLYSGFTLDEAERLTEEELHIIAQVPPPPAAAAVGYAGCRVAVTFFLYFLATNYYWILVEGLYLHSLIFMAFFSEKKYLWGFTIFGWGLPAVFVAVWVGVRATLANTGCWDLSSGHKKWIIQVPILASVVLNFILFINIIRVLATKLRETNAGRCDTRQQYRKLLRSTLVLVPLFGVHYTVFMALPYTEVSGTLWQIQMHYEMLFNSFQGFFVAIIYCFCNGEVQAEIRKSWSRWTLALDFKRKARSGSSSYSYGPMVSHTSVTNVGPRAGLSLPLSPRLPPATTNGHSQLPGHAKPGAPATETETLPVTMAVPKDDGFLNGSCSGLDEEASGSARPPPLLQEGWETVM
# Description: as §1, §2, §3, §4, §5
Molecule,decrease in potency with rΔNt as compared to potency with rWT-HA [1] [fold],"greater potency with rΔNt in comparison to the potency of PTH(1–14) ([2]; COS-7 cells, cAMP) [fold]",cAMP response of cells expressing rΔNt (in words) [2],potency/activity with rΔNt compared with rWT-HA (in words) [1],potency relative to PTH(1–34) with rΔNt ([2]; COS-7 cells transfected with rΔNt)
"CCCC[C@H](NC(=O)[C@H](CCCNC(=N)N)NC(=O)[C@H](CCC(=O)O)NC(=O)[C@@H](NC(=O)[C@H](CO)NC(=O)[C@H](C)NC(=O)[C@H](CC(C)C)NC(=O)[C@H](Cc1c[nH]cn1)NC(=O)[C@H](CCCCN)NC(=O)CNC(=O)[C@H](CC(C)C)NC(=O)[C@H](CC(N)=O)NC(=O)[C@H](Cc1c[nH]cn1)NC(=O)[C@H](CCCC)NC(=O)[C@H](CC(C)C)NC(=O)[C@H](CCC(N)=O)NC(=O)[C@@H](NC(=O)[C@H](CCC(=O)O)NC(=O)[C@H](CO)NC(=O)[C@@H](NC(=O)[C@H](C)N)C(C)C)[C@@H](C)CC)C(C)C)C(=O)N[C@@H](CCC(N)=O)C(=O)N[C@@H](Cc1c[nH]c2ccccc12)C(=O)N[C@@H](CC(C)C)C(=O)N[C@@H](CCCNC(=N)N)C(=O)N[C@@H](CCCCN)C(=O)N[C@@H](CCCCN)C(=O)N[C@@H](CC(C)C)C(=O)N[C@@H](CCC(N)=O)C(=O)N[C@@H](CC(=O)O)C(=O)N[C@H](C(=O)N[C@@H](Cc1c[nH]cn1)C(=O)N[C@@H](CC(N)=O)C(=O)N[C@@H](Cc1ccc(O)cc1)C(N)=O)C(C)C [PTH(1–34), [Nle^8,21,Tyr^34]rPTH-(1–34)NH2]",100,100,responded,–,–
"PTH(1–14): Amino-terminal peptide fragment based on the rat PTH sequence, residues 1–14, C-terminally amidated (AVSEIQLMHNLGKH-NH2)",–,–,responded,equipotent with the two receptors; also recorded: equivalent activity; also recorded: not affected,only two orders of magnitude weaker
